SMILES strings stand for the structures.

We go through two compounds from ChEMBL document CHEMBL6087487, “Discovery of a 2'-α-Fluoro-2'-β-C-(fluoromethyl) Purine Nucleotide Prodrug as a Potential Oral Anti-SARS-CoV-2 Agent” (J Med Chem, 2025).

The test system of test [1] is SARS-CoV-2. Kind of test: Antiviral activity against SARS-CoV-2 20SF107 infected in HPAEpiC cells assessed as inhibition of viral replication pretreated with compound and subsequent introduction of viral infection for 1 hr followed by inoculum removal and compound washout and further treatment with compound for 48 hrs by RT-qPCR analysis. The format is functional, organism-based. The settings on record: for EC50: Severe acute respiratory syndrome coronavirus 2, 20SF107, HPAEpiC.

Test [2] relates to SARS-CoV-2. The test can be described thus: Antiviral activity against SARS-CoV-2 Omicron BA.5 infected in HPAEpiC cells assessed as inhibition of viral replication pretreated with compound and subsequent introduction of viral infection for 1 hr followed by inoculum removal and compound washout and further treatment with compound for 48 hrs by RT-qPCR analysis. Format: functional, organism-based. To be noted: Severe acute respiratory syndrome coronavirus 2, Omicron BA.5, HPAEpiC. On the technique in general: In qPCR the cycle at which signal appears reflects the starting amount.

Usually EC50 stands for the concentration that produces a half-maximal response. For `CNc1nc(N)nc2c1ncn2[C@@H]1O[C@H](CO[P@@](=O)(N[C@@H](C)C(=O)OC(C)C)Oc2ccccc2)[C@@H](O)[C@]1(F)CF.O=S(=O)(O)O`, the EC50 was determined as 560 nM in test [1] and 960 nM in test [2]. The inhibition result in test [1] (Severe acute respiratory syndrome coronavirus 2, time 49.0 hrs) was “Dose-dependent-effect”.

Consider `CCC(CC)COC(=O)[C@H](C)N[P@](=O)(OC[C@H]1O[C@@](C#N)(c2ccc3c(N)ncnn23)[C@H](O)[C@@H]1O)Oc1ccccc1` [REMDESIVIR], for which the EC50 in test [1] was found to be 910 nM.
